Assay results reported in US11857565B2, “Hydrophobic Auristatin F compounds and conjugates thereof” (priority 2018, dated 2024).
Read-outs that look alike come from different tables or passages of the source. Starred links: 1 amine or outer side, 2 acyl side, 3 side chain; linkers in the order of their positions; H or OH if unused. Non-standard residues stand in square brackets, D forms with d. Residues, ends and D or L forms follow the SMILES beside them. *: point of attachment. Dolaproine = CO[C@@H]([C@@H]1CCCN1)[C@@H](C)C(=O)O; X2 = CC(C)[C@@H](C(=O)[*:2])N(C)CCCCCN(C)[*:1]; X16 = CC(CCN(C)[C@H](C(=O)*)C(C)C)CC(C)(C)C; X18 = CCCCCCCCCCCCCCCN(C)[C@H](C(=O)*)C(C)C; X7 = CC(C)[C@@H](C(=O)[*:2])N(C)CCN(C)[*:1]; Dil = CC[C@H](C)[C@H](NC)[C@@H](CC(=O)O)OC; X21 = CCCCCCCCCCCN(C)[C@H](C(=O)*)C(C)C; X8 = CCCCCCCCCCCCN(C)[C@H](C(=O)*)C(C)C; X12 = CCCCCCCCCCN(C)[C@H](C(=O)*)C(C)C; X11 = CCCCCCCCCN(C)[C@H](C(=O)*)C(C)C; X14 = CCCCCCCCN(C)[C@H](C(=O)*)C(C)C; X24 = CC(C)CCCN(C)[C@H](C(=O)*)C(C)C; X20 = CCCCCCCN(C)[C@H](C(=O)*)C(C)C; X22 = CC(C)CCN(C)[C@H](C(=O)*)C(C)C; NMe2Val = CC(C)[C@@H](C(=O)*)N(C)C; X13 = CCCCCN(C)[C@H](C(=O)*)C(C)C; X23 = CCCN(CCC)[C@H](C(=O)*)C(C)C; X9 = CCCCCCN(C)[C@H](C(=O)*)C(C)C; X10 = CCCCN(C)[C@H](C(=O)*)C(C)C; X15 = CCCN(C)[C@H](C(=O)*)C(C)C; X17 = CCN(CC)[C@H](C(=O)*)C(C)C; X19 = CCN(C)[C@H](C(=O)*)C(C)C; Boc = CC(C)(C)OC(=O)*

Experiments:
Type in all cases: cell-based
[1] = tested on: MDR− HL60 acute myeloid leukemia cell line; test: In vitro cytotoxicity (CellTiter-Glo cell proliferation assay), free drugs on HL60; settings: read-out: In vitro IC50 HL60 (MDR−)
Protocol: (§1) The cytotoxicity of an auristatin Ligand Drug Conjugate or free auristatin drug was measured by a cell proliferation assay employing the protocol described in Promega Corp. Technical Bulletin TB288; Mendoza et al., 2002, Cancer Res. 62:5485-5488), the methods of which is specifically incorporated by reference herein. Briefly, an aliquot of 100 μl of cell culture containing about […] (e.g., HL-60, SK-MEL-5, etc.) in medium is deposited in each well of a 96-well, opaque-walled plate. Control wells were prepared containing medium and without cells. Free Drug or conjugate is added to the experimental wells and incubated for 96 h and are then equilibrated to room temperature for approximately 30 minutes whereupon a volume of CellTiter-Glo™ reagent equal to the volume of cell culture medium present in each well is added. The contents are mixed for 2 minutes on an orbital shaker to induce cell lysis and the plate is incubated at room temperature for 10 minutes to stabilize the luminescence signal for recordation.

[2] = tested on: MDR+ HL60/RV acute myeloid leukemia cell line; test: In vitro cytotoxicity (CellTiter-Glo cell proliferation assay), free drugs on HL60/RV; settings: read-out: In vitro IC50 HL60/RV (MDR+)
Protocol: as §1

SK-MEL-28 Melanoma = test: In vitro cytotoxicity, free drugs on SK-MEL-28; settings: Homo sapiens, SK-MEL-28; free drug
Protocol: as §1

SK-MEL-5 Melanoma = test: In vitro cytotoxicity, free drugs on SK-MEL-5; settings: Homo sapiens, SK-MEL-5; free drug
Protocol: as §1

A2058 Melanoma = test: In vitro cytotoxicity, free drugs on A2058; settings: Homo sapiens, A2058; free drug
Protocol: as §1

A375 Melanoma = test: In vitro cytotoxicity, free drugs on A375; settings: Homo sapiens, A-375; free drug
Protocol: as §1

IGR-37 Melanoma = test: In vitro cytotoxicity, free drugs on IGR-37; settings: Homo sapiens, IGR-37; free drug
Protocol: as §1

[3] = In vitro cytotoxicity, free drugs on Colo-853; settings: free drug; read-out: In vitro IC50 Colo-853 Colon Cancer
Protocol: as §1

| Structure (SMILES) | IC50 ([1]; Homo sapiens, HL-60, 96 h) [nM] | IC50 ([2]; Homo sapiens, HL-60, 96 h) [nM] | also measured |
| --- | --- | --- | --- |
| CCCCCCCCCCCN(C)[C@H](C(=O)N[C@H](C(=O)N(C)[C@@H]([C@@H](C)CC)[C@@H](CC(=O)N1CCC[C@H]1[C@H](OC)[C@@H](C)C(=O)N[C@@H](Cc1ccccc1)C(=O)O)OC)C(C)C)C(C)C [Compound 13, Undecyl-AF] (X21-V[Dil][Dolaproine]F-OH) | 1 | 60.2 |  |
| CC[C@H](C)[C@@H]([C@@H](CC(=O)N1CCC[C@H]1[C@H](OC)[C@@H](C)C(=O)N[C@@H](Cc1ccccc1)C(=O)O)OC)N(C)C(=O)[C@@H](NC(=O)[C@H](C(C)C)N(C)CCCCCN(C)C(=O)OC(C)(C)C)C(C)C [Compound 26, (Boc-N-methyl)-pentyl-AF] (Boc-[X2]V[Dil][Dolaproine]F-OH) |  |  | IC50 (SK-MEL-28 Melanoma): 9.6 nM; IC50 (SK-MEL-5 Melanoma): 0.9 nM; IC50 (A2058 Melanoma): 0.9 nM; IC50 (A375 Melanoma): 2.1 nM; IC50 (IGR-37 Melanoma): 6.5 nM; IC50 [3]: 12.5 nM |
| CC[C@H](C)[C@@H]([C@@H](CC(=O)N1CCC[C@H]1[C@H](OC)[C@@H](C)C(=O)N[C@@H](Cc1ccccc1)C(=O)O)OC)N(C)C(=O)[C@@H](NC(=O)[C@H](C(C)C)N(C)CCN(C)C(=O)OC(C)(C)C)C(C)C [Compound 24, Boc-(N-methyl-ethyl)-AF] (Boc-[X7]V[Dil][Dolaproine]F-OH) |  |  | IC50 (SK-MEL-28 Melanoma): 13.9 nM; IC50 (SK-MEL-5 Melanoma): 5.7 nM; IC50 (A2058 Melanoma): 5.2 nM; IC50 (A375 Melanoma): 4.9 nM; IC50 (IGR-37 Melanoma): 23.1 nM; IC50 [3]: 19.6 nM |
| CCCN(CCC)[C@H](C(=O)N[C@H](C(=O)N(C)[C@@H]([C@@H](C)CC)[C@@H](CC(=O)N1CCC[C@H]1[C@H](OC)[C@@H](C)C(=O)N[C@@H](Cc1ccccc1)C(=O)O)OC)C(C)C)C(C)C [Compound 23, Bis(propyl)-AF] (X23-V[Dil][Dolaproine]F-OH) | 6.2 | 437 |  |
| CCCCCCCCCCN(C)[C@H](C(=O)N[C@H](C(=O)N(C)[C@@H]([C@@H](C)CC)[C@@H](CC(=O)N1CCC[C@H]1[C@H](OC)[C@@H](C)C(=O)N[C@@H](Cc1ccccc1)C(=O)O)OC)C(C)C)C(C)C [Compound 12, Decyl-AF] (X12-V[Dil][Dolaproine]F-OH) | 1 | 59.2 |  |
| CC[C@H](C)[C@@H]([C@@H](CC(=O)N1CCC[C@H]1[C@H](OC)[C@@H](C)C(=O)N[C@@H](Cc1ccccc1)C(=O)O)OC)N(C)C(=O)[C@@H](NC(=O)[C@H](C(C)C)N(C)CCCC(C)C)C(C)C [Compound 19, 4-Methylpentyl-AF] (X24-V[Dil][Dolaproine]F-OH) | 4.9 | 20.5 |  |
| CC[C@H](C)[C@@H]([C@@H](CC(=O)N1CCC[C@H]1[C@H](OC)[C@@H](C)C(=O)N[C@@H](Cc1ccccc1)C(=O)O)OC)N(C)C(=O)[C@@H](NC(=O)[C@H](C(C)C)N(C)CCC(C)CC(C)(C)C)C(C)C (stereo partly drawn) [Compound 20, 3,5,5-Trimethylhexyl-AF] (X16-V[Dil][Dolaproine]F-OH) | 1 | 17 |  |
| CCCCCCCCCN(C)[C@H](C(=O)N[C@H](C(=O)N(C)[C@@H]([C@@H](C)CC)[C@@H](CC(=O)N1CCC[C@H]1[C@H](OC)[C@@H](C)C(=O)N[C@@H](Cc1ccccc1)C(=O)O)OC)C(C)C)C(C)C [Compound 11, Nonyl-AF] (X11-V[Dil][Dolaproine]F-OH) | 1.8 | 35.4 |  |
| CCCCCCCN(C)[C@H](C(=O)N[C@H](C(=O)N(C)[C@@H]([C@@H](C)CC)[C@@H](CC(=O)N1CCC[C@H]1[C@H](OC)[C@@H](C)C(=O)N[C@@H](Cc1ccccc1)C(=O)O)OC)C(C)C)C(C)C [Compound 9, Heptyl-AF] (X20-V[Dil][Dolaproine]F-OH) | 7.7 | 88.5 |  |
| CC[C@H](C)[C@@H]([C@@H](CC(=O)N1CCC[C@H]1[C@H](OC)[C@@H](C)C(=O)N[C@@H](Cc1ccccc1)C(=O)O)OC)N(C)C(=O)[C@@H](NC(=O)[C@H](C(C)C)N(CC)CC)C(C)C [Compound 22, Bis(ethyl)-AF] (X17-V[Dil][Dolaproine]F-OH) | 13.6 | 202 |  |
| CCCCCN(C)[C@H](C(=O)N[C@H](C(=O)N(C)[C@@H]([C@@H](C)CC)[C@@H](CC(=O)N1CCC[C@H]1[C@H](OC)[C@@H](C)C(=O)N[C@@H](Cc1ccccc1)C(=O)O)OC)C(C)C)C(C)C [Compound 7, Pentyl-AF] (X13-V[Dil][Dolaproine]F-OH) | 6.6 | 35.7 |  |
| CCCCN(C)[C@H](C(=O)N[C@H](C(=O)N(C)[C@@H]([C@@H](C)CC)[C@@H](CC(=O)N1CCC[C@H]1[C@H](OC)[C@@H](C)C(=O)N[C@@H](Cc1ccccc1)C(=O)O)OC)C(C)C)C(C)C [Compound 6, Butyl-AF] (X10-V[Dil][Dolaproine]F-OH) | 14.3 | 47.9 |  |
| CC[C@H](C)[C@@H]([C@@H](CC(=O)N1CCC[C@H]1[C@H](OC)[C@@H](C)C(=O)N[C@@H](Cc1ccccc1)C(=O)O)OC)N(C)C(=O)[C@@H](NC(=O)[C@H](C(C)C)N(C)CC)C(C)C [Compound 4, Ethyl-AF] (X19-V[Dil][Dolaproine]F-OH) | 23.2 | 145 |  |
| CCCCCCCCCCCCCCCN(C)[C@H](C(=O)N[C@H](C(=O)N(C)[C@@H]([C@@H](C)CC)[C@@H](CC(=O)N1CCC[C@H]1[C@H](OC)[C@@H](C)C(=O)N[C@@H](Cc1ccccc1)C(=O)O)OC)C(C)C)C(C)C [Compound 15, Pentadecyl-AF] (X18-V[Dil][Dolaproine]F-OH) | 4.7 | 294 |  |
| CCCCCCN(C)[C@H](C(=O)N[C@H](C(=O)N(C)[C@@H]([C@@H](C)CC)[C@@H](CC(=O)N1CCC[C@H]1[C@H](OC)[C@@H](C)C(=O)N[C@@H](Cc1ccccc1)C(=O)O)OC)C(C)C)C(C)C [Compound 8, Hexyl-AF] (X9-V[Dil][Dolaproine]F-OH) | 6.9 | 40.9 |  |
| CCCCCCCCCCCCN(C)[C@H](C(=O)N[C@H](C(=O)N(C)[C@@H]([C@@H](C)CC)[C@@H](CC(=O)N1CCC[C@H]1[C@H](OC)[C@@H](C)C(=O)N[C@@H](Cc1ccccc1)C(=O)O)OC)C(C)C)C(C)C [Compound 14, Dodecyl-AF] (X8-V[Dil][Dolaproine]F-OH) | 1.4 | 138 |  |
| CCCN(C)[C@H](C(=O)N[C@H](C(=O)N(C)[C@@H]([C@@H](C)CC)[C@@H](CC(=O)N1CCC[C@H]1[C@H](OC)[C@@H](C)C(=O)N[C@@H](Cc1ccccc1)C(=O)O)OC)C(C)C)C(C)C [Compound 5, Propyl-AF] (X15-V[Dil][Dolaproine]F-OH) | 24.5 | 82.1 |  |
| CC[C@H](C)[C@@H]([C@@H](CC(=O)N1CCC[C@H]1[C@H](OC)[C@@H](C)C(=O)N[C@@H](Cc1ccccc1)C(=O)O)OC)N(C)C(=O)[C@@H](NC(=O)[C@H](C(C)C)N(C)C)C(C)C [Compound 1, Auristatin F] (NMe2Val-V[Dil][Dolaproine]F-OH) |  |  | IC50 ([1]; free drug, 96 h incubation): 137 nM; IC50 ([2]; free drug, 96 h incubation): 388 nM |
| CCCCCCCCN(C)[C@H](C(=O)N[C@H](C(=O)N(C)[C@@H]([C@@H](C)CC)[C@@H](CC(=O)N1CCC[C@H]1[C@H](OC)[C@@H](C)C(=O)N[C@@H](Cc1ccccc1)C(=O)O)OC)C(C)C)C(C)C [Compound 10, Octyl-AF] (X14-V[Dil][Dolaproine]F-OH) | 3.9 | 55.9 |  |
| CC[C@H](C)[C@@H]([C@@H](CC(=O)N1CCC[C@H]1[C@H](OC)[C@@H](C)C(=O)N[C@@H](Cc1ccccc1)C(=O)O)OC)N(C)C(=O)[C@@H](NC(=O)[C@H](C(C)C)N(C)CCC(C)C)C(C)C [Compound 21, 3-Methylbutyl-AF] (X22-V[Dil][Dolaproine]F-OH) | 9 | 46.3 |  |
